The assay concerns the target T1, human α7 nAChR (Homo sapiens, UniProt P36544).
T1 construct: host or cells: GH4C1 cells (pituitary tumor, immortalized cell line)
In words: α7 nAChR FLIPR (Fluorometric Imaging Plate Reader) Ca2+ assay, agonist EC50. Particulars: GH4C1 cells stably transfected with human α7 nAChR; Fluo-4 Ca2+ fluorescence; Examples 194 to 205 tested as the HCl salt; read-out: pEC50 value (negative logarithm of the agonist EC50) (converted). The class given is cell-based. A digest of the protocol:
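GH4C1 cells stably expressing human α7 nAChR, loaded with 2 μM Fluo-4 for 45–60 min at 37 °C in HEPES buffer pH 7.3 with 2 mM CaCl2 and 2.5 mM probenecid. Peak calcium fluorescence (ex 488, em 510–580 nm) after compound addition fitted for agonist EC50, reported as pEC50.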

Bounds are passed on as bounds.

T1 sequence (P36544 23-502): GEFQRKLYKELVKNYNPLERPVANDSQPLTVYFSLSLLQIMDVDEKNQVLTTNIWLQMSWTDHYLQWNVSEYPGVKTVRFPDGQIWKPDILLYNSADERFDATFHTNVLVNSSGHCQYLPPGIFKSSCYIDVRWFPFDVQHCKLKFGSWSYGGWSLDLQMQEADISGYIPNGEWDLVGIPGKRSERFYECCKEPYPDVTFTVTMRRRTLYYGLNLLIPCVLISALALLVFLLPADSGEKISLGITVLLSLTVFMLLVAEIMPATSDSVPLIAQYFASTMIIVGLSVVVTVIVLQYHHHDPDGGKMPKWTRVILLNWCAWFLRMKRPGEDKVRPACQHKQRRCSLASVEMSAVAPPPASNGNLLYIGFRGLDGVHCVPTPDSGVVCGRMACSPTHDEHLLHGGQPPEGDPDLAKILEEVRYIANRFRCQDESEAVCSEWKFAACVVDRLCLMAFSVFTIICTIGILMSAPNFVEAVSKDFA

`CCN(CC)CCCCNc1nnc(-c2ccc(NC(=O)c3ccccc3)cc2)o1` [Example 119, N-[4-(5-{[4-(diethylamino)butyl]amino}-1,3,4-oxadiazol-2-yl)phenyl]benzamide]: the EC50 – broadly, the concentration needed to bring the measured effect to its halfway point – is at most 0.1 µM.
Consider `COc1cc(NC(=O)c2ccccc2F)ccc1-c1nnc(NCCCN2CCN3CCC2CC3)o1` [Example 120, N-[4-(5-{[3-(1,4-diazabicyclo[3.2.2]non-4-yl)propyl]amino}-1,3,4-oxadiazol-2-yl)-3-(methyloxy)phenyl]-2-fluorobenzamide], for which the EC50 was at most 0.1 µM.
With `O=C(Nc1ccc(-c2nnc(NCCCN3CCN4CCC3CC4)o2)c(F)c1)c1ccccc1F` [Example 121, N-[4-(5-{[3-(1,4-diazabicyclo[3.2.2]non-4-yl)propyl]amino}-1,3,4-oxadiazol-2-yl)-3-fluorophenyl]-2-fluorobenzamide] the figure was at most 0.1 µM; with `COc1cc(NC(=O)c2ccccc2)ccc1-c1nnc(NCCCN2CCN3CCC2CC3)o1` [Example 122, N-[4-(5-{[3-(1,4-diazabicyclo[3.2.2]non-4-yl)propyl]amino}-1,3,4-oxadiazol-2-yl)-3-(methyloxy)phenyl]benzamide], at most 0.1 µM.
The value for `O=C(Nc1ccc(-c2nnc(NCCCN3CCN4CCC3CC4)o2)cc1)c1ccccc1` [Example 123, N-[4-(5-{[3-(1,4-diazabicyclo[3.2.2]non-4-yl)propyl]amino}-1,3,4-oxadiazol-2-yl)phenyl]benzamide] was at most 0.1 µM; that for `O=C(Nc1ccc(-c2nnc(NCCCN3CCN4CCC3CC4)o2)c(F)c1)c1ccccc1` [Example 124, N-[4-(5-{[3-(1,4-diazabicyclo[3.2.2]non-4-yl)propyl]amino}-1,3,4-oxadiazol-2-yl)-3-fluorophenyl]benzamide] was at most 0.1 µM; that for `O=C(Nc1ccc(-c2nnc(NCCCN3CCN4CCC3CC4)o2)c(Cl)c1)c1ccccc1F` [Example 125, N-[3-chloro-4-(5-{[3-(1,4-diazabicyclo[3.2.2]non-4-yl)propyl]amino}-1,3,4-oxadiazol-2-yl)phenyl]-2-fluorobenzamide] was at most 0.1 µM.
Turning to `COc1cc(NC(=O)c2ccccc2F)ccc1-c1nnc(NCCCN2CCCC2)o1` [Example 126, 2-fluoro-N-[3-(methyloxy)-4-(5-{[3-(1-pyrrolidinyl)propyl]amino}-1,3,4-oxadiazol-2-yl)phenyl]benzamide], the EC50 is at most 1 µM.
The value for `COc1cc(NC(=O)c2ccccc2F)ccc1-c1nnc(NCCCCN2CCCC2)o1` [Example 127, 2-fluoro-N-[3-(methyloxy)-4-(5-{[4-(1-pyrrolidinyl)butyl]amino}-1,3,4-oxadiazol-2-yl)phenyl]benzamide] was at most 0.1 µM; that for `CC1(C)CCN(CCCNc2nnc(-c3ccc(NC(=O)c4ccccc4F)cc3)o2)CC1` [Example 135, N-[4-(5-{[3-(4,4-dimethyl-1-piperidinyl)propyl]amino}-1,3,4-oxadiazol-2-yl)phenyl]-2-fluorobenzamide] was at most 1 µM.
With `CCC(C)N(C)CCCNc1nnc(-c2ccc(NC(=O)c3ccccc3F)cc2)o1` (stereo not shown) [Example 136, 2-fluoro-N-{4-[5-({3-[methyl(1-methylpropyl)amino]propyl}amino)-1,3,4-oxadiazol-2-yl]phenyl}benzamide] the figure was at most 1 µM.
The value for `CN(CCCNc1nnc(-c2ccc(NC(=O)c3ccccc3F)cc2)o1)C1CCCC1` [Example 137, N-{4-[5-({3-[cyclopentyl(methyl)amino]propyl}amino)-1,3,4-oxadiazol-2-yl]phenyl}-2-fluorobenzamide] was at most 1 µM; that for `COc1cc(NC(=O)c2ccccc2F)ccc1-c1nnc(NCCCCN2CCC(F)CC2)o1` [Example 145, 2-fluoro-N-[4-(5-{[4-(4-fluoro-1-piperidinyl)butyl]amino}-1,3,4-oxadiazol-2-yl)-3-(methyloxy)phenyl]benzamide] was at most 0.1 µM; that for `O=C(Nc1ccc(-c2nnc(NCCCN3CCCC3)o2)cc1)C1CCCCC1` [Example 146, N-[4-(5-{[3-(1-pyrrolidinyl)propyl]amino}-1,3,4-oxadiazol-2-yl)phenyl]cyclohexanecarboxamide] was at most 1 µM.
For the compound `O=C(Nc1ccc(-c2nnc(NCCCCN3CCCC3)o2)cc1)C1CCCCC1` [Example 147, N-[4-(5-{[4-(1-pyrrolidinyl)butyl]amino}-1,3,4-oxadiazol-2-yl)phenyl]cyclohexanecarboxamide], the EC50 is at most 0.1 µM.
With `O=C(Nc1ccc(-c2nnc(NCCCCN3CCOCC3)o2)cc1)C1CCCCC1` [Example 148, N-[4-(5-{[4-(4-morpholinyl)butyl]amino}-1,3,4-oxadiazol-2-yl)phenyl]cyclohexanecarboxamide] the figure was at most 1 µM; with `CCN(CC)CCCNc1nnc(-c2ccc(NC(=O)C3CCCCC3)cc2)o1` [Example 149, N-[4-(5-{[3-(diethylamino)propyl]amino}-1,3,4-oxadiazol-2-yl)phenyl]cyclohexanecarboxamide], at most 1 µM; with `CCN(CC)CCCCNc1nnc(-c2ccc(NC(=O)C3CCCCC3)cc2)o1` [Example 150, N-[4-(5-{[4-(diethylamino)butyl]amino}-1,3,4-oxadiazol-2-yl)phenyl]cyclohexanecarboxamide], at most 1 µM.
Consider `O=C(Nc1ccc(-c2nnc(NCCCCN3CCCC3)o2)c(Cl)c1)c1ccccc1F` [Example 153, N-[3-chloro-4-(5-{[4-(1-pyrrolidinyl)butyl]amino}-1,3,4-oxadiazol-2-yl)phenyl]-2-fluorobenzamide], for which the EC50 is at most 0.1 µM.
With `O=C(Nc1ccc(-c2nnc(NCCCCN3CCOCC3)o2)c(Cl)c1)c1ccccc1F` [Example 154, N-[3-chloro-4-(5-{[4-(4-morpholinyl)butyl]amino}-1,3,4-oxadiazol-2-yl)phenyl]-2-fluorobenzamide] the figure was at most 0.1 µM; with `CCN(CC)CCCNc1nnc(-c2ccc(NC(=O)c3ccccc3F)cc2Cl)o1` [Example 155, N-[3-chloro-4-(5-{[3-(diethylamino)propyl]amino}-1,3,4-oxadiazol-2-yl)phenyl]-2-fluorobenzamide], at most 1 µM.
With `CCN(CC)CCCCNc1nnc(-c2ccc(NC(=O)c3ccccc3F)cc2Cl)o1` [Example 156, N-[3-chloro-4-(5-{[4-(diethylamino)butyl]amino}-1,3,4-oxadiazol-2-yl)phenyl]-2-fluorobenzamide] the figure was at most 0.1 µM; with `O=C(Nc1ccc(-c2nnc(NCCCN3CCCC3)o2)c(Cl)c1)C1CCCCC1` [Example 157, N-[3-chloro-4-(5-{[3-(1-pyrrolidinyl)propyl]amino}-1,3,4-oxadiazol-2-yl)phenyl]cyclohexanecarboxamide], at most 1 µM; with `O=C(Nc1ccc(-c2nnc(NCCCCN3CCCC3)o2)c(Cl)c1)C1CCCCC1` [Example 158, N-[3-chloro-4-(5-{[4-(1-pyrrolidinyl)butyl]amino}-1,3,4-oxadiazol-2-yl)phenyl]cyclohexanecarboxamide], at most 0.1 µM.
Consider `CCN(CC)CCCNc1nnc(-c2ccc(NC(=O)C3CCCCC3)cc2Cl)o1` [Example 159, N-[3-chloro-4-(5-{[3-(diethylamino)propyl]amino}-1,3,4-oxadiazol-2-yl)phenyl]cyclohexanecarboxamide], for which the EC50 was at most 1 µM.
With `CCN(CC)CCCCNc1nnc(-c2ccc(NC(=O)C3CCCCC3)cc2Cl)o1` [Example 160, N-[3-chloro-4-(5-{[4-(diethylamino)butyl]amino}-1,3,4-oxadiazol-2-yl)phenyl]cyclohexanecarboxamide] the figure was at most 1 µM; with `O=C(Nc1ccc(-c2nnc(NCCCCN3CCOCC3)o2)c(Cl)c1)C1CCCCC1` [Example 161, N-[3-chloro-4-(5-{[4-(4-morpholinyl)butyl]amino}-1,3,4-oxadiazol-2-yl)phenyl]cyclohexanecarboxamide], at most 1 µM.
The value for `O=C(Nc1ccc(-c2nnc(NCCCN3CCCCC3)o2)c(Cl)c1)C1CCCCC1` [Example 163, N-[3-chloro-4-(5-{[3-(1-piperidinyl)propyl]amino}-1,3,4-oxadiazol-2-yl)phenyl]cyclohexanecarboxamide] was at most 1 µM.
The value for `O=C(Nc1ccc(-c2nnc(NCCCCN3CCCCC3)o2)c(Cl)c1)C1CCCCC1` [Example 164, N-[3-chloro-4-(5-{[4-(1-piperidinyl)butyl]amino}-1,3,4-oxadiazol-2-yl)phenyl]cyclohexanecarboxamide] was at most 0.1 µM; that for `O=C(Nc1ccc(-c2nnc(NCCCN3CCCC3)o2)c(Cl)c1)c1ccccc1F` [Example 165, N-[3-chloro-4-(5-{[3-(1-pyrrolidinyl)propyl]amino}-1,3,4-oxadiazol-2-yl)phenyl]-2-fluorobenzamide] was at most 1 µM; that for `CCc1cc(NC(=O)c2ccccc2F)ccc1-c1nnc(NCCCN2CCOCC2)o1` [Example 167, N-[3-ethyl-4-(5-{[3-(4-morpholinyl)propyl]amino}-1,3,4-oxadiazol-2-yl)phenyl]-2-fluorobenzamide] was at most 1 µM.
`CCc1cc(NC(=O)c2ccccc2F)ccc1-c1nnc(NCCCCN2CCCCC2)o1` [Example 168, N-[3-ethyl-4-(5-{[4-(1-piperidinyl)butyl]amino}-1,3,4-oxadiazol-2-yl)phenyl]-2-fluorobenzamide]: the EC50 was at most 1 µM.
The value for `CCc1cc(NC(=O)c2ccccc2F)ccc1-c1nnc(NCCCN2CCN3CCC2CC3)o1` [Example 169, N-[4-(5-{[3-(1,4-diazabicyclo[3.2.2]non-4-yl)propyl]amino}-1,3,4-oxadiazol-2-yl)-3-ethylphenyl]-2-fluorobenzamide] was at most 0.1 µM.
With `CCc1cc(NC(=O)c2ccccc2F)ccc1-c1nnc(NCCCCN2CCCC2)o1` [Example 170, N-[3-ethyl-4-(5-{[4-(1-pyrrolidinyl)butyl]amino}-1,3,4-oxadiazol-2-yl)phenyl]-2-fluorobenzamide], the EC50 was at most 0.1 µM.

Values taken from US20090105217A1, “2-PHENYL-5-AMINO-1,3,4-OXADIAZOLES AND THEIR USE AS NICOTINIC ACETYLCHOLINE RECEPTOR LIGANDS” (priority 2007, published 2009).
